Experimental data: ChEMBL document CHEMBL1938249, “Synthesis, antimalarial activity, and structure-activity relationship of 7-(2-phenoxyethoxy)-4(1H)-quinolones” (J Med Chem, 2011)

Assays:
[1] = Cytotoxicity index, ratio of EC50 for mouse J774 cells to EC50 for chloroquine-, mefloquine, pyrimethamine-,atovaquone-resistant ring stage Plasmodium falciparum TM90-C2B; format: cell-based; details: read-out: Ratio EC50
Plasmodium falciparum [2] = experiment: Resistance ratio, ratio of EC50 for chloroquine-, mefloquine, pyrimethamine-,atovaquone-resistant ring stage Plasmodium falciparum TM90-C2B to EC50 for chloroquine-, pyrimethamine-resistant Plasmodium falciparum W2; format: functional
Plasmodium falciparum [3] = experiment: Antimalarial activity against chloroquine-, pyrimethamine-resistant ring stage Plasmodium falciparum W2 infected in human A positive erythrocytes after 72 hrs by SYBR green 1-based fluorescence assay; format: functional, organism-based; details: W2, 72 h
Plasmodium falciparum [4] = experiment: Antimalarial activity against chloroquine-, mefloquine-, pyrimethamine-,atovaquone-resistant ring stage Plasmodium falciparum TM90-C2B infected in human A positive erythrocytes after 72 hrs by SYBR green 1-based fluorescence assay; format: functional, organism-based
J774 [5] = experiment: Antiproliferative against mouse J774 cells at < 20 uM after 72 hrs by Cell titer assay; format: cell-based; details: j774, 72 h
J774 [6] = experiment: Antiproliferative against mouse J774 cells after 72 hrs by Cell titer assay; format: cell-based; details: J774, 72 h

CCCCc1cc2c(=O)c(-c3ccc(C(F)(F)F)cc3F)c(C)[nH]c2cc1OCCOc1ccccc1
selectivity ratio [1]: ≥ 100 | Ratio EC50 (Plasmodium falciparum [2]): 1.11 | EC50 (Plasmodium falciparum [3]): 27.9 nM | EC50 (Plasmodium falciparum [4]): 30.9 nM | Activity (J774 [5]): Non-toxic | EC50 (J774 [6]): 19 µM

CCc1c(C)[nH]c2cc(OCCCOC(=O)C(CC)C(C)=O)c(Cl)cc2c1=O (stereo not given)
selectivity ratio [1]: ≥ 100 | Ratio EC50 (Plasmodium falciparum [2]): 1 | EC50 (Plasmodium falciparum [3]): 6130 nM | EC50 (Plasmodium falciparum [4]): 6130 nM | Activity (J774 [5]): Non-toxic

CCCCc1cc2c(=O)c(-c3cccc(Oc4ccc(F)cc4)c3)c(C)[nH]c2cc1OCCOc1ccccc1
selectivity ratio [1]: ≥ 100 | Ratio EC50 (Plasmodium falciparum [2]): 0.72 | EC50 (Plasmodium falciparum [3]): 1390 nM | EC50 (Plasmodium falciparum [4]): 1000 nM | Activity (J774 [5]): Non-toxic | EC50 (J774 [6]): 19 µM

CCc1c(C)[nH]c2cc(OCCN3CCOCC3)c(Cl)cc2c1=O
selectivity ratio [1]: ≥ 100 | Ratio EC50 (Plasmodium falciparum [2]): 0.14 | EC50 (Plasmodium falciparum [3]): 5090 nM | EC50 (Plasmodium falciparum [4]): 726 nM | Activity (J774 [5]): Non-toxic

CCCCc1cc2c(=O)c(-c3ccccc3)c(C)[nH]c2cc1OCCOc1ccccc1
selectivity ratio [1]: ≥ 100 | Ratio EC50 (Plasmodium falciparum [2]): 0.71 | EC50 (Plasmodium falciparum [3]): 1070 nM | EC50 (Plasmodium falciparum [4]): 764 nM | Activity (J774 [5]): Non-toxic | EC50 (J774 [6]): 23 µM

CCCCc1cc2c(=O)c(-c3ccc(C)cc3C)c(C)[nH]c2cc1OCCOc1ccccc1
selectivity ratio [1]: ≥ 100 | Ratio EC50 (Plasmodium falciparum [2]): 1.79 | EC50 (Plasmodium falciparum [3]): 907 nM | EC50 (Plasmodium falciparum [4]): 1630 nM | Activity (J774 [5]): Non-toxic | EC50 (J774 [6]): 22 µM

CCCCc1cc2c(=O)c(C(=O)OC)c[nH]c2cc1OCCOc1ccccc1
selectivity ratio [1]: ≥ 100 | Ratio EC50 (Plasmodium falciparum [2]): 223 | EC50 (Plasmodium falciparum [3]): 0.05 nM | EC50 (Plasmodium falciparum [4]): 11.2 nM | Activity (J774 [5]): Non-toxic | EC50 (J774 [6]): 46 µM

CCCCc1cc2c(=O)c(-c3ccncc3)c(C)[nH]c2cc1OCCOc1ccccc1
selectivity ratio [1]: ≥ 100 | Ratio EC50 (Plasmodium falciparum [2]): 0.32 | EC50 (Plasmodium falciparum [3]): 3150 nM | EC50 (Plasmodium falciparum [4]): 1020 nM | Activity (J774 [5]): Non-toxic | EC50 (J774 [6]): 23 µM

CCc1c(C)[nH]c2cc(OCCN(C)C)c(Cl)cc2c1=O
selectivity ratio [1]: ≥ 100 | Ratio EC50 (Plasmodium falciparum [2]): 0.12 | EC50 (Plasmodium falciparum [3]): 5050 nM | EC50 (Plasmodium falciparum [4]): 604 nM | Activity (J774 [5]): Non-toxic

CCc1c(C)[nH]c2cc(OCCOc3ccccc3)c(Br)cc2c1=O
selectivity ratio [1]: ≥ 100 | Ratio EC50 (Plasmodium falciparum [2]): 0.21 | EC50 (Plasmodium falciparum [3]): 203 nM | EC50 (Plasmodium falciparum [4]): 43.5 nM | Activity (J774 [5]): Non-toxic | EC50 (J774 [6]): > 25 µM

CCCCc1cc2c(=O)c(-c3ccc(C(F)(F)F)cc3C)c(C)[nH]c2cc1OCCOc1ccccc1
selectivity ratio [1]: ≥ 100 | Ratio EC50 (Plasmodium falciparum [2]): 1.95 | EC50 (Plasmodium falciparum [3]): 71.8 nM | EC50 (Plasmodium falciparum [4]): 140 nM | Activity (J774 [5]): Non-toxic | EC50 (J774 [6]): 20 µM

CCCCc1cc2c(=O)c(-c3ccc(Cl)cc3C)c(C)[nH]c2cc1OCCOc1ccccc1
selectivity ratio [1]: ≥ 100 | Ratio EC50 (Plasmodium falciparum [2]): 7.89 | EC50 (Plasmodium falciparum [3]): 68.7 nM | EC50 (Plasmodium falciparum [4]): 542 nM | Activity (J774 [5]): Non-toxic | EC50 (J774 [6]): > 21 µM

CCc1c(C)[nH]c2cc(OCCOc3ccccc3)ccc2c1=O
selectivity ratio [1]: ≥ 100 | Ratio EC50 (Plasmodium falciparum [2]): 0.79 | EC50 (Plasmodium falciparum [3]): 104 nM | EC50 (Plasmodium falciparum [4]): 71.3 nM | Activity (J774 [5]): Non-toxic | EC50 (J774 [6]): 4 µM

CCCCc1cc2c(=O)c(-c3ccc(C(F)(F)F)cc3)c(C)[nH]c2cc1OCCOc1ccccc1
selectivity ratio [1]: ≥ 100 | Ratio EC50 (Plasmodium falciparum [2]): 4.82 | EC50 (Plasmodium falciparum [3]): 509 nM | EC50 (Plasmodium falciparum [4]): 2450 nM | Activity (J774 [5]): Non-toxic | EC50 (J774 [6]): 20 µM

CCc1c(C)[nH]c2cc(OCCOc3ccccc3)c(OC)cc2c1=O
selectivity ratio [1]: ≥ 100 | Ratio EC50 (Plasmodium falciparum [2]): 0.11 | EC50 (Plasmodium falciparum [3]): 184 nM | EC50 (Plasmodium falciparum [4]): 19.5 nM | Activity (J774 [5]): Non-toxic | EC50 (J774 [6]): > 29 µM

CCCCc1cc2c(=O)c(-c3ccc(OC(F)(F)F)cc3)c(C)[nH]c2cc1OCCOc1ccccc1
selectivity ratio [1]: ≥ 100 | Ratio EC50 (Plasmodium falciparum [2]): 0.78 | EC50 (Plasmodium falciparum [3]): 3220 nM | EC50 (Plasmodium falciparum [4]): 2510 nM | Activity (J774 [5]): Non-toxic | EC50 (J774 [6]): 20 µM

CCCCc1cc2c(=O)c(-c3ccc(Oc4ccc(OC(F)(F)F)cc4)cc3C)c(C)[nH]c2cc1OCCOc1ccccc1
selectivity ratio [1]: ≥ 100 | Ratio EC50 (Plasmodium falciparum [2]): 8.12 | EC50 (Plasmodium falciparum [3]): 58.5 nM | EC50 (Plasmodium falciparum [4]): 475 nM | Activity (J774 [5]): Non-toxic | EC50 (J774 [6]): 16 µM

CCc1c(C)[nH]c2cc(OCCCO)c(Cl)cc2c1=O
selectivity ratio [1]: ≥ 100 | Ratio EC50 (Plasmodium falciparum [2]): 0.09 | EC50 (Plasmodium falciparum [3]): 8450 nM | EC50 (Plasmodium falciparum [4]): 776 nM | Activity (J774 [5]): Non-toxic

CCCCc1cc2c(=O)c(CC)c(C)[nH]c2cc1OCCOc1ccccc1
selectivity ratio [1]: ≥ 100 | Ratio EC50 (Plasmodium falciparum [2]): 0.08 | EC50 (Plasmodium falciparum [3]): 1.92 nM | EC50 (Plasmodium falciparum [4]): 0.15 nM | Activity (J774 [5]): Non-toxic | EC50 (J774 [6]): 1 µM

O=C1C(O)=C([C@H]2CC[C@H](c3ccc(Cl)cc3)CC2)C(=O)c2ccccc21 [ATOVAQUONE]
EC50 (Plasmodium falciparum [4]): > 170 nM

CCCCc1cc2c(=O)c(-c3ccc(COc4ccc(OC(F)(F)F)cc4)cc3)c(C)[nH]c2cc1OCCOc1ccccc1
selectivity ratio [1]: ≥ 100 | Ratio EC50 (Plasmodium falciparum [2]): 1 | EC50 (Plasmodium falciparum [3]): 4050 nM | EC50 (Plasmodium falciparum [4]): 4050 nM | Activity (J774 [5]): Non-toxic | EC50 (J774 [6]): 16 µM

CCc1c(C)[nH]c2cc(OCCOc3ccccc3)c(C)cc2c1=O
selectivity ratio [1]: ≥ 100 | Ratio EC50 (Plasmodium falciparum [2]): 0.11 | EC50 (Plasmodium falciparum [3]): 255 nM | EC50 (Plasmodium falciparum [4]): 27.7 nM | Activity (J774 [5]): Non-toxic | EC50 (J774 [6]): > 30 µM

CCc1c(C)[nH]c2cc(OCCCN3CCN(c4ccccc4)CC3)c(Cl)cc2c1=O
selectivity ratio [1]: ≥ 100 | Ratio EC50 (Plasmodium falciparum [2]): 0.09 | EC50 (Plasmodium falciparum [3]): 976 nM | EC50 (Plasmodium falciparum [4]): 91.7 nM | Activity (J774 [5]): Non-toxic | EC50 (J774 [6]): > 23 µM

CCc1c(C)[nH]c2cc(OCCOc3ccccc3)c(Cl)cc2c1=O
selectivity ratio [1]: ≥ 100 | Ratio EC50 (Plasmodium falciparum [2]): 0.28 | EC50 (Plasmodium falciparum [3]): 256 nM | EC50 (Plasmodium falciparum [4]): 72.1 nM | Activity (J774 [5]): Non-toxic | EC50 (J774 [6]): > 28 µM

CCCCc1cc2c(=O)c(-c3cccnc3)c(C)[nH]c2cc1OCCOc1ccccc1
selectivity ratio [1]: ≥ 100 | Ratio EC50 (Plasmodium falciparum [2]): 0.44 | EC50 (Plasmodium falciparum [3]): 1350 nM | EC50 (Plasmodium falciparum [4]): 588 nM | Activity (J774 [5]): Non-toxic | EC50 (J774 [6]): 23 µM

CCc1c(C)[nH]c2cc(OCOC)c(Cl)cc2c1=O
selectivity ratio [1]: ≥ 100 | Ratio EC50 (Plasmodium falciparum [2]): 0.09 | EC50 (Plasmodium falciparum [3]): 908 nM | EC50 (Plasmodium falciparum [4]): 79.7 nM | Activity (J774 [5]): Non-toxic | EC50 (J774 [6]): 19 µM

CCCCc1cc2c(=O)c(-c3c(C)noc3C)c(C)[nH]c2cc1OCCOc1ccccc1
selectivity ratio [1]: ≥ 100 | Ratio EC50 (Plasmodium falciparum [2]): 4.73 | EC50 (Plasmodium falciparum [3]): 27 nM | EC50 (Plasmodium falciparum [4]): 128 nM | Activity (J774 [5]): Non-toxic | EC50 (J774 [6]): 22 µM

COC(=O)c1c[nH]c2cc(OC)c(Cl)cc2c1=O
selectivity ratio [1]: ≥ 100 | Ratio EC50 (Plasmodium falciparum [2]): 5.7 | EC50 (Plasmodium falciparum [3]): 134 nM | EC50 (Plasmodium falciparum [4]): 765 nM | Activity (J774 [5]): Non-toxic | EC50 (J774 [6]): 37 µM

CCCCc1cc2c(=O)cc(C)[nH]c2cc1OCCOc1ccccc1
selectivity ratio [1]: ≥ 100 | Ratio EC50 (Plasmodium falciparum [2]): 0.2 | EC50 (Plasmodium falciparum [3]): 216 nM | EC50 (Plasmodium falciparum [4]): 44.1 nM | Activity (J774 [5]): Non-toxic | EC50 (J774 [6]): 28 µM
